Earlier results in patent US20210353574A1, “Softgels with solid or gel-like polymeric fill matrix” (Bayer HealthCare LLC, priority 2018, published 2021).

Settings: used as an analgesic

In the case of `COc1ccc2cc([C@H](C)C(=O)O)ccc2c1` [Naproxen], the minimum effective dose is listed as 200 mg.

For `COc1ccc2cc([C@H](C)C(=O)O)ccc2c1` [naproxen sodium], the minimum effective dose is listed as 220 mg.
